Reference: patent publication US20190233884A1 (University of Southern California, priority 2016, published 2019)

Tested on: patients with refractory metastatic colorectal cancer (mCRC)
Experiment: PFS, OS and disease control in the training (evaluation) cohort of refractory mCRC patients receiving TAS-102 (n=52, Japan), by baseline characteristics, SNP genotype and toxicity
Type: in vivo, human
Conditions: evaluation cohort
Method: All patients underwent the treatment in salvage-line setting. […]
(§1) Genomic DNA was extracted from peripheral whole blood in patients of all cohorts using the QIAmp Kit (Qiagen, Valencia, Calif., USA) according to the manufacturer's protocol (www.qiagen.com). The candidate SNPs were genotyped using PCR-based direct DNA sequence analysis by ABI 3100A Capillary Genetic Analyzer and Sequencing Scanner v1.0 (Applied Biosystems). Amplification of extracted DNA was carried out using both forward and reverse primers for each gene polymorphism as shown in Table 1. […] The investigators analyzing SNPs were blinded to the clinical data of the study patients.
The primary endpoint in this study was progression-free survival (PFS), and the secondary endpoints were overall survival (OS) and disease control rate (DCR). PFS was calculated from the date of starting treatment to the first observation of disease progression or death from any cause. If a patient had no disease progression or death, PFS was censored at the date of last follow up. OS was calculated from the date of starting treatment until the date of death from any cause or the date of the last follow-up, at which point OS was censored. The disease control rate (DCR) was defined as the proportion of patients who achieved a stable disease (SD) or […] according to RECISTv1.1. Chi-square test was used to examine the difference in baseline patient characteristics among the three cohorts. Allelic distribution of all SNPs by ethnicity for deviation from Hardy-Weinberg equilibrium and the allelic frequencies of SNPs were tested using the Chi-square tests with one degree of freedom. The associations between candidate SNPs and disease control, and toxicities were examined using contingency tables and Fisher's exact test. The associations of SNPs with PFS and OS were analysed using Kaplan-Meier curves and the log-rank test. Because the true mode of inheritance of candidate SNPs was not established yet, a codominant or dominant genetic model if appropriate was considered.
All patients underwent the treatment in salvage-line setting. […] In all patients, adverse events were graded according to the Common Terminology Criteria for Adverse Events, version 4.0. […]
as §1, with “tested” for “genotyped”, “Biosystems).” for “Biosystems). Amplification of extracted DNA was carried out using both forward and reverse primers for each gene polymorphism as shown in Table 1.”, “data.” for “data of the study patients.”
The primary endpoint in this study was progression-free survival (PFS), and the secondary endpoints were overall survival (OS) and disease control rate (DCR).

[1] = CHEK2 rs2267130 Any C vs T/T (Ref.), multivariable
[2] = CHEK2 rs2267130 Any C vs T/T (Ref.), univariate
[3] = CHEK2 rs2267130 C/C vs T/T (Ref.), multivariable
[4] = CHEK2 rs2267130 C/C vs T/T (Ref.), univariate
[5] = CHEK2 rs2267130 T/C vs T/T (Ref.), multivariable
[6] = CHEK2 rs2267130 T/C vs T/T (Ref.), univariate
[7] = Che1 rs1564796 T/C and C/C grouped together
[8] = FANCD2 rs6792811 G/A and G/G grouped together

Substance: Trifluridine/tipiracil [TAS-102]
- PD, patients n (%) (BRCA1 rs16941 T/C): 15 (68%)
- Disease Control Rate SD, patients n (%) (BRCA1 rs16941 T/T): 7 (37%)
- PD, patients n (%) (BRCA1 rs16941 T/T): 12 (63%)
- Disease Control Rate SD, patients n (%) (BRCA1 rs799917 A/A): 1 (20%)
- PD, patients n (%) (BRCA1 rs799917 A/A): 4 (80%)
- Disease Control Rate SD, patients n (%) (BRCA1 rs799917 Any A): 8 (30%)
- PD, patients n (%) (BRCA1 rs799917 Any A): 19 (70%)
- Disease Control Rate SD, patients n (%) (BRCA1 rs799917 G/A): 7 (32%)
- PD, patients n (%) (BRCA1 rs799917 G/A): 15 (68%)
- Disease Control Rate SD, patients n (%) (BRCA1 rs799917 G/G): 7 (37%)
- PD, patients n (%) (BRCA1 rs799917 G/G): 12 (63%)
- Disease Control Rate SD, patients n (%) (BRCA2 rs144848 A/A): 8 (29%)
- PD, patients n (%) (BRCA2 rs144848 A/A): 20 (71%)
- Disease Control Rate SD, patients n (%) (BRCA2 rs144848 A/C): 6 (46%)
- PD, patients n (%) (BRCA2 rs144848 A/C): 7 (54%)
- Disease Control Rate SD, patients n (%) (BRCA2 rs144848 Any C): 7 (39%)
- PD, patients n (%) (BRCA2 rs144848 Any C): 11 (61%)
- Disease Control Rate SD, patients n (%) (BRCA2 rs144848 C/C): 1 (20%)
- PD, patients n (%) (BRCA2 rs144848 C/C): 4 (80%)
- Disease Control CR/PR/SD, patients n (%) (CHEK2 rs2267130 Any C): 12 (46%)
- Median OS (95% CI) (CHEK2 rs2267130 Any C): 8.3 (5.7, 15.6+) months
- Median PFS (95% CI) (CHEK2 rs2267130 Any C): 3.4 (2.1, 4.6) months
- PD, patients n (%) (CHEK2 rs2267130 Any C): 14 (54%)
- HR OS (95% CI) [1]: 0.71 (0.29, 1.77)
- HR PFS (95% CI) [1]: 0.49 (0.26, 0.94)
- HR OS (95% CI) [2]: 0.71 (0.29, 1.74)
- HR PFS (95% CI) [2]: 0.48 (0.25, 0.90)
- Disease Control CR/PR/SD, patients n (%) (CHEK2 rs2267130 C/C): 3 (43%)
- Median OS (95% CI) (CHEK2 rs2267130 C/C): 5.7 (1.4, 10.7+) months
- Median PFS (95% CI) (CHEK2 rs2267130 C/C): 2.7 (0.9, 4.6+) months
- PD, patients n (%) (CHEK2 rs2267130 C/C): 4 (57%)
- HR OS (95% CI) [3]: 1.31 (0.39, 4.42)
- HR PFS (95% CI) [3]: 0.59 (0.23, 1.51)
- HR OS (95% CI) [4]: 1.21 (0.37, 3.99)
- HR PFS (95% CI) [4]: 0.62 (0.25, 1.58)
- Disease Control CR/PR/SD, patients n (%) (CHEK2 rs2267130 T/C): 9 (47%)
- Median OS (95% CI) (CHEK2 rs2267130 T/C): 12.4 (6.3, 15.6+) months
- Median PFS (95% CI) (CHEK2 rs2267130 T/C): 3.7 (2.1, 5.2) months
- PD, patients n (%) (CHEK2 rs2267130 T/C): 10 (53%)
- HR OS (95% CI) [5]: 0.56 (0.20, 1.55)
- HR PFS (95% CI) [5]: 0.46 (0.22, 0.94)
- HR OS (95% CI) [6]: 0.59 (0.22, 1.60)
- HR PFS (95% CI) [6]: 0.44 (0.22, 0.89)
- Disease Control CR/PR/SD, patients n (%) (CHEK2 rs2267130 T/T): 3 (15%)
- Median OS (95% CI) (CHEK2 rs2267130 T/T): 8.1 (4.4, 8.7+) months
- Median PFS (95% CI) (CHEK2 rs2267130 T/T): 2.1 (1.6, 2.9) months
- PD, patients n (%) (CHEK2 rs2267130 T/T): 17 (85%)
- PFS (CHEK2 rs2267130 T/T): 2.1 months
- Disease Control Rate SD, patients n (%) (CHEK2 rs22236142 Any C): 7 (27%)
- PD, patients n (%) (CHEK2 rs22236142 Any C): 19 (73%)
- Disease Control Rate SD, patients n (%) (CHEK2 rs22236142 C/C): 2 (25%)
- PD, patients n (%) (CHEK2 rs22236142 C/C): 6 (75%)
- Disease Control Rate SD, patients n (%) (CHEK2 rs22236142 G/C): 5 (28%)
- PD, patients n (%) (CHEK2 rs22236142 G/C): 13 (72%)
- Disease Control Rate SD, patients n (%) (CHEK2 rs22236142 G/G): 8 (40%)
- PD, patients n (%) (CHEK2 rs22236142 G/G): 12 (60%)
- Disease Control Rate SD, patients n (%) (Che1 rs1045056 T/C): 2 (22%)
- PD, patients n (%) (Che1 rs1045056 T/C): 7 (78%)
- Disease Control Rate SD, patients n (%) (Che1 rs1045056 T/T): 13 (35%)
- PD, patients n (%) (Che1 rs1045056 T/T): 24 (65%)
- Disease Control Rate SD, patients n (%) [7]: 3 (25%)
- PD, patients n (%) [7]: 8 (67%)
- Disease Control Rate SD, patients n (%) (Che1 rs1564796 T/T): 12 (34%)
- PD, patients n (%) (Che1 rs1564796 T/T): 23 (66%)
- Disease Control Rate SD, patients n (%) (FANCD2 rs2272125 T/G): 3 (50%)
- PD, patients n (%) (FANCD2 rs2272125 T/G): 3 (50%)
- Disease Control Rate SD, patients n (%) (FANCD2 rs2272125 T/T): 12 (30%)
- PD, patients n (%) (FANCD2 rs2272125 T/T): 28 (70%)
- Disease Control Rate SD, patients n (%) (FANCD2 rs6792811 A/A): 10 (33%)
- PD, patients n (%) (FANCD2 rs6792811 A/A): 20 (67%)
- Disease Control Rate SD, patients n (%) [8]: 5 (29%)
- PD, patients n (%) [8]: 11 (71%)
- Disease Control Rate SD, patients n (%) (PCNA rs25406 A/A): 4 (36%)
- PD, patients n (%) (PCNA rs25406 A/A): 7 (64%)
- Disease Control Rate SD, patients n (%) (PCNA rs25406 Any A): 12 (44%)
- PD, patients n (%) (PCNA rs25406 Any A): 15 (56%)
- Disease Control Rate SD, patients n (%) (PCNA rs25406 G/A): 8 (50%)
- PD, patients n (%) (PCNA rs25406 G/A): 8 (50%)
- Disease Control Rate SD, patients n (%) (PCNA rs25406 G/G): 3 (19%)
- PD, patients n (%) (PCNA rs25406 G/G): 13 (81%)
- Disease Control Rate SD, patients n (%) (Pin1 rs2233678 G/C): 0%
- PD, patients n (%) (Pin1 rs2233678 G/C): 2 (100%)
- Disease Control Rate SD, patients n (%) (Pin1 rs2233678 G/G): 15 (34%)
- PD, patients n (%) (Pin1 rs2233678 G/G): 29 (66%)
- Disease Control Rate SD, patients n (%) (Pin1 rs2233679 Any T): 11 (38%)
- PD, patients n (%) (Pin1 rs2233679 Any T): 18 (62%)
- Disease Control Rate SD, patients n (%) (Pin1 rs2233679 C/C): 4 (24%)
- PD, patients n (%) (Pin1 rs2233679 C/C): 13 (76%)
- Disease Control Rate SD, patients n (%) (Pin1 rs2233679 C/T): 8 (36%)
- PD, patients n (%) (Pin1 rs2233679 C/T): 14 (64%)
- Disease Control Rate SD, patients n (%) (Pin1 rs2233679 T/T): 3 (43%)
